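Five compound concentrations were applied to cells in 96-well plates for 48 hours; endpoints were derived by simple linear interpolation of the resulting dose-response curve. TGI marks complete inhibition of growth.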

Our source for the TGI values is PubChem BioAssay (NCI).

Among the test systems are HCC-2998 colon; SK-MEL-28 melanoma; A549 NSCLC; MALME-3M melanoma; UO-31 renal; SF-268 CNS; NCI/ADR-RES ovarian; DU-145 prostate; HCT-15 colon; NCI-H23 lung; MOLT-4 leukemia; PC-3 prostate; HL-60(TB) leukemia; TK-10 renal; COLO 205 colon; NCI-H460 lung; OVCAR-8 ovarian; RPMI-8226 leukemia; CAKI-1 renal; T-47D breast.
Holding throughout (assay): inhibition of tumour cell growth, NCI panel, 48 h

Regarding `CCCCC/C(=N\c1nc[nH]c1C(N)=O)OCC`, the TGI in the test with HCC-2998 colon, in the test with SK-MEL-28 melanoma, in the test on A549 NSCLC, with MALME-3M melanoma, in the test on UO-31 renal and in the test on SF-268 CNS was > 100 µM throughout. Also, the TGI in the test with NCI/ADR-RES ovarian, in the test with DU-145 prostate, in the test on HCT-15 colon, with NCI-H23 lung, in the test with MOLT-4 leukemia and in the test on PC-3 prostate was > 100 µM throughout. For the same molecule, the TGI with HL-60(TB) leukemia, in the test with TK-10 renal, in the test on COLO 205 colon, with NCI-H460 lung, in the test on OVCAR-8 ovarian and in the test with RPMI-8226 leukemia was > 100 µM in each case. Also, the TGI with CAKI-1 renal is > 100 µM.
For `C=CCn1c(=S)sc2c(=O)[nH]cnc21`, the TGI with HCC-2998 colon, with A549 NSCLC, with MALME-3M melanoma, in the test on UO-31 renal, in the test with SF-268 CNS and in the test on HCT-15 colon was > 100 µM in each case. Also, the TGI with NCI-H23 lung, in the test with MOLT-4 leukemia, with HL-60(TB) leukemia, with TK-10 renal, in the test on COLO 205 colon and with NCI-H460 lung was > 100 µM each time. The TGI in the test with OVCAR-8 ovarian and with CAKI-1 renal was > 100 µM each time.
As for `COc1ccc(C2S/C(=C\c3cccc([N+](=O)[O-])c3)C(=O)N2NC(=O)Cc2ccccc2)cc1` (stereo not drawn), the TGI in the test on SK-MEL-28 melanoma, in the test with A549 NSCLC, in the test on MALME-3M melanoma, with UO-31 renal, with SF-268 CNS and in the test on HCT-15 colon was > 100 µM throughout. Moreover, the TGI in the test on NCI-H23 lung, in the test on MOLT-4 leukemia, in the test with HL-60(TB) leukemia, in the test with TK-10 renal, in the test on COLO 205 colon and in the test with NCI-H460 lung was > 100 µM throughout. The TGI in the test with OVCAR-8 ovarian, with RPMI-8226 leukemia and in the test on CAKI-1 renal was > 100 µM throughout.
As for `Cn1c(C2CC(C)(C)c3c2c2ccccc2n3C)cc2ccccc21` (stereo not drawn), the TGI with HCC-2998 colon, in the test on SK-MEL-28 melanoma, with A549 NSCLC, in the test with MALME-3M melanoma, in the test on SF-268 CNS and in the test on HCT-15 colon was > 304 µM each time. Besides, the TGI with NCI-H23 lung, in the test with MOLT-4 leukemia, in the test with HL-60(TB) leukemia, with TK-10 renal, with COLO 205 colon and in the test on NCI-H460 lung was > 304 µM in each case. The TGI in the test with OVCAR-8 ovarian, in the test on RPMI-8226 leukemia and with CAKI-1 renal was > 304 µM throughout.
In the case of `O=C1CCC2(c3ccc(F)cc3)Nc3ncncc3N12` (stereo not drawn), the TGI in the test with HCC-2998 colon, in the test with A549 NSCLC, in the test on MALME-3M melanoma, with UO-31 renal, in the test on SF-268 CNS and in the test with NCI/ADR-RES ovarian was > 10 µM each time. The TGI in the test on DU-145 prostate, in the test with HCT-15 colon, with NCI-H23 lung, in the test with MOLT-4 leukemia, in the test with PC-3 prostate and in the test on TK-10 renal was > 10 µM throughout. The TGI with NCI-H460 lung and in the test on OVCAR-8 ovarian was > 10 µM throughout.
With `COc1ccc(N2C(=O)CC(c3c[nH]c4ccccc34)C2=O)cc1` (stereo not drawn), the TGI in the test on HCC-2998 colon, with SK-MEL-28 melanoma, in the test on A549 NSCLC, in the test with MALME-3M melanoma, in the test with UO-31 renal and in the test on SF-268 CNS was > 100 µM throughout. In addition, the TGI in the test with NCI/ADR-RES ovarian, with DU-145 prostate, with HCT-15 colon, in the test on NCI-H23 lung, in the test with MOLT-4 leukemia and with PC-3 prostate was > 100 µM in each case. In addition, the TGI with HL-60(TB) leukemia, in the test on TK-10 renal, with COLO 205 colon, in the test on NCI-H460 lung, in the test with OVCAR-8 ovarian and in the test with RPMI-8226 leukemia was > 100 µM in each case. Further, the TGI with CAKI-1 renal was > 100 µM.
Regarding `CC1CC(=O)NC2CC1C2(C)C` (stereo not drawn), the TGI in the test on HCC-2998 colon, with SK-MEL-28 melanoma, in the test on A549 NSCLC, in the test with MALME-3M melanoma, with UO-31 renal and in the test with SF-268 CNS was > 100 µM throughout. For the same molecule, the TGI with DU-145 prostate, in the test with HCT-15 colon, with NCI-H23 lung, in the test on MOLT-4 leukemia, in the test on HL-60(TB) leukemia and with TK-10 renal was > 100 µM each time. Moreover, the TGI in the test with COLO 205 colon, in the test with NCI-H460 lung, in the test on T-47D breast, with OVCAR-8 ovarian and in the test with RPMI-8226 leukemia was > 100 µM throughout.
In the case of `COC(=O)[C@]1(C)CCC[C@]2(C)C3CC4OOC3(C=C4C(C)C)CCC21` (stereo partly drawn), the TGI amounted to 30.4 µM in the test with HCC-2998 colon; 33.9 µM in the test on A549 NSCLC; 41.6 µM in the test on MALME-3M melanoma; 30.3 µM with UO-31 renal; 30.1 µM in the test on SF-268 CNS; 30.1 µM with HCT-15 colon. For the same molecule, the TGI was determined as 32.8 µM in the test on NCI-H23 lung; 49.8 µM in the test on MOLT-4 leukemia; 4.15 µM in the test with HL-60(TB) leukemia; 82.1 µM in the test with TK-10 renal; 39.4 µM in the test with COLO 205 colon; 25.7 µM with NCI-H460 lung. For the same molecule, the results for the TGI in the test with OVCAR-8 ovarian, with RPMI-8226 leukemia and in the test with CAKI-1 renal were 41.8 µM, 36 µM and 62.3 µM, respectively.
